# Measurements from patent US8450313B2, “2,3-diaryl- or heteroaryl-substituted 1,1,1-trifluoro-2-hydroxypropyl compounds” (Hoffmann-La Roche Inc., priority 2009, dated 2013).
# Biological target: T1, full length human recombinant glucocorticoid receptor (Homo sapiens, UniProt P04150)
# T1 construct: It contains some partially purified full length human recombinant glucocorticoid receptor; purchased Panvera/Invitrogen PV4302
# T1 sequence (P04150 1-777): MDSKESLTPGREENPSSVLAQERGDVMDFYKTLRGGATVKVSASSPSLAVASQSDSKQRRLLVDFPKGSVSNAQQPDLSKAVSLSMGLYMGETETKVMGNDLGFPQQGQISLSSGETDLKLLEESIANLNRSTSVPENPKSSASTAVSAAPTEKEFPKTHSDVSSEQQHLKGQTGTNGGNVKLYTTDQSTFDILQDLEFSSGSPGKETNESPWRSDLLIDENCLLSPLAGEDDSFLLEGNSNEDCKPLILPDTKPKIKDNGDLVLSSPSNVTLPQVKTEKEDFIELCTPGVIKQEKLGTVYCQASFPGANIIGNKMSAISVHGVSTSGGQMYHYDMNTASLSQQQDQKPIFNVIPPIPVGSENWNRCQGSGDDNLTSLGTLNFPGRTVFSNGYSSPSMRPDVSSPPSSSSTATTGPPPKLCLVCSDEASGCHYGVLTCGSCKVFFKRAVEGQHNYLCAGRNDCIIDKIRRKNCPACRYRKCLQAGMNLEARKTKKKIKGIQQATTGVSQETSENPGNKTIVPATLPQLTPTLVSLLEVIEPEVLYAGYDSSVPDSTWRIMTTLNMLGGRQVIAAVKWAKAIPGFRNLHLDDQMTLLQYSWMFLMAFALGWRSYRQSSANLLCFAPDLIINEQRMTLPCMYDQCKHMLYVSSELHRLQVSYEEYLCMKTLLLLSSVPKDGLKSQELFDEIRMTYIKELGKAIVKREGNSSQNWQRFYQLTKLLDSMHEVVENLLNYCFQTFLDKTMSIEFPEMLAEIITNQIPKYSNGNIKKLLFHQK
# Assay: Glucocorticoid Receptor Binding Assay (Glucocorticoid Receptor Competitor Assay far red kit, fluorescence polarization)
# Conditions: competition with fluorescent GR ligand Fluormone GS Far Red, 3 hours at 22° C., pH 7.4; Ki calculated from IC50 by Cheng-Prusoff
# Method in brief: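 Fluorescence polarization competition with partially purified full-length human recombinant GR, stabilizing peptide and Fluormone GS Far Red tracer in screening buffer pH 7.4; 3 hours at 22° C in the dark, read at 610–660 nm. IC50 from sigmoidal fit; Ki by Cheng-Prusoff.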
row,Ki,SMILES
1,2.4 nM,"C[C@H](c1ccc(-c2ccc(C(=O)O)cc2)cc1Cl)[C@@](O)(c1ccc2c(c1)n(C)c(=O)n2C)C(F)(F)F (stereo in doubt) [Example 77, 3′-Chloro-4′-[2-(1,3-dimethyl-2-oxo-2,3-dihydro-1H-benzoimidazol-5-yl)-3,3,3-trifluoro-2-hydroxy-1-methyl-propyl]-biphenyl-4-carboxylic acid]"
2,92.4 nM,"C[C@H](c1ccc(C(=O)NCC(=O)O)cc1Cl)[C@@](O)(c1ccc2oc(=O)n(C)c2c1)C(F)(F)F (stereo in doubt) [Example 232, {3-Chloro-4-[3,3,3-trifluoro-2-hydroxy-1-methyl-2-(3-methyl-2-oxo-2,3-dihydrobenzooxazol-5-yl)-propyl]-benzoylamino}-acetic acid]"
3,1.7 nM,"COC(=O)c1cnc(Oc2ccc([C@H](C)[C@](O)(c3cc(C)c(C#N)c(C)c3)C(F)(F)F)c(Cl)c2)c(Cl)c1 (stereo in doubt) [Example 149, 5-Chloro-6-{3-chloro-4-[2-(4-cyano-3,5-dimethyl-phenyl)-3,3,3-trifluoro-2-hydroxy-1-methyl-propyl]-phenoxy}-nicotinic acid methyl ester]"
4,222 nM,"C[C@H](c1ccc(-c2ccc(C(=O)O)c(F)c2)cc1Cl)[C@@](O)(c1ccc2c(c1)NC(=O)CO2)C(F)(F)F (relative stereo) [Example 72, 3′-Chloro-3-fluoro-4′-[3,3,3-trifluoro-2-hydroxy-1-methyl-2-(3-oxo-3,4-dihydro-2H-benzo[1,4]oxazin-6-yl)-propyl]-biphenyl-4-carboxylic acid]"
5,10.8 nM,"C[C@@H](c1cc(Oc2ccc(C(=O)O)cc2)ccc1Cl)[C@](O)(c1ccc2c(c1)N(C)C(=O)CO2)C(F)(F)F (relative stereo) [Example 8, 4-{4-Chloro-3-[3,3,3-trifluoro-2-hydroxy-1-methyl-2-(4-methyl-3-oxo-3,4-dihydro-2H-benzo[1,4]oxazin-6-yl)-propyl]-phenoxy}-benzoic acid]"
6,20.8 nM,"COC(=O)c1ccc(-c2ccc([C@@H](C)[C@@](O)(c3cnc4c(c3)N(C)C(=O)CO4)C(F)(F)F)c(Cl)c2)cc1F (stereo in doubt) [Example 51, 3′-Chloro-3-fluoro-4′-[3,3,3-trifluoro-2-hydroxy-1-methyl-2-(1-methyl-2-oxo-2,3-dihydro-1H-pyrido[2,3-b][1,4]oxazin-7-yl)-propyl]-biphenyl-4-carboxylic acid methyl ester]"
7,7.8 nM,"COC(=O)c1cnc(Oc2ccc([C@@H](C)[C@@](O)(c3ccc4c(c3)N(C)C(=O)CO4)C(F)(F)F)c(Cl)c2)nc1C(F)(F)F (racemic) [Example 225, 2-{3-Chloro-4-[3,3,3-trifluoro-2-hydroxy-1-methyl-2-(4-methyl-3-oxo-3,4-dihydro-2H-benzo[1,4]oxazin-6-yl)-propyl]-phenoxy}-4-trifluoromethyl-pyrimidine-5-carboxylic acid methyl ester]"
8,6.9 nM,"C[C@H](c1ccc(C(=O)NCC(=O)OC(C)(C)C)cc1Cl)[C@@](O)(c1ccc2oc(=O)n(C)c2c1)C(F)(F)F (stereo in doubt) [Example 231, {3-Chloro-4-[3,3,3-trifluoro-2-hydroxy-1-methyl-2-(3-methyl-2-oxo-2,3-dihydrobenzooxazol-5-yl)-propyl]-benzoylamino}-acetic acid tert-butyl ester]"
9,2.3 nM,"C[C@H](c1ccc(Oc2ccc(C(=O)O)cc2)cc1Cl)[C@@](O)(c1ccc2c(c1)N(C)C(=O)CO2)C(F)(F)F (racemic) [Example 60, 4-{3-Chloro-4-[3,3,3-trifluoro-2-hydroxy-1-methyl-2-(4-methyl-3-oxo-3,4-dihydro-2H-benzo[1,4]oxazin-6-yl)-propyl]-phenoxy}-benzoic acid]"
10,7.5 nM,"C[C@@H](c1ccc(-c2ccc(CCC(=O)O)cc2)cc1Cl)[C@](O)(c1ccc2c(c1)N(C)C(=O)CO2)C(F)(F)F (relative stereo) [Example 29, 3-{3′-Chloro-4′-[3,3,3-trifluoro-2-hydroxy-1-methyl-2-(4-methyl-3-oxo-3,4-dihydro-2H-benzo[1,4]oxazin-6-yl)-propyl]-biphenyl-4-yl}-propionic acid]"
11,1.9 nM,"CC(c1ccc(-c2ccc(OCC(=O)O)cc2)cc1Cl)C(O)(c1ccc2c(c1)n(C)c(=O)n2C)C(F)(F)F (stereo not drawn) [Example 75, {3′-Chloro-4′-[2-(1,3-dimethyl-2-oxo-2,3-dihydro-1H-benzoimidazol-5-yl)-3,3,3-trifluoro-2-hydroxy-1-methyl-propyl]-biphenyl-4-yloxy}-acetic acid]"
12,13.3 nM,"C[C@H](c1ccc(-c2cccc(C(=O)O)c2)cc1Cl)[C@@](O)(c1ccc2c(c1)oc(=O)n2C)C(F)(F)F (stereo in doubt) [Example 179, 3′-Chloro-4′-[3,3,3-trifluoro-2-hydroxy-1-methyl-2-(3-methyl-2-oxo-2,3-dihydro-benzooxazol-6-yl)-propyl]-biphenyl-3-carboxylic acid]"
13,1.1 nM,"CCOC(=O)COc1ccc(-c2ccc([C@@H](C)[C@@](O)(c3ccc4oc(=O)n(C)c4c3)C(F)(F)F)c(Cl)c2)cc1 (relative stereo) [Example 129, {3′-Chloro-4′-[3,3,3-trifluoro-2-hydroxy-1-methyl-2-(3-methyl-2-oxo-2,3-dihydro-benzooxazol-5-yl)-propyl]-biphenyl-4-yloxy}-acetic acid ethyl ester]"
14,1.3 nM,"C[C@@H](c1ccc(-c2ccc(F)c(C(=O)O)c2)cc1Cl)[C@](O)(c1ccc2c(c1)N(C)C(=O)CO2)C(F)(F)F (relative stereo) [Example 32, 3′-Chloro-4-fluoro-4′-[3,3,3-trifluoro-2-hydroxy-1-methyl-2-(4-methyl-3-oxo-3,4-dihydro-2H-benzo[1,4]oxazin-6-yl)-propyl]-biphenyl-3-carboxylic acid]"
15,0.6 nM,"C[C@H](c1ccc(Oc2ccc(C(=O)O)c(Cl)n2)cc1Cl)[C@@](O)(c1ccc2c(c1)n(C)c(=O)n2C)C(F)(F)F (stereo in doubt) [Example 92, 2-Chloro-6-{3-chloro-4-[2-(1,3-dimethyl-2-oxo-2,3-dihydro-1H-benzoimidazol-5-yl)-3,3,3-trifluoro-2-hydroxy-1-methyl-propyl]-phenoxy}-nicotinic acid]"
16,1.3 nM,"C[C@H](c1ccc(-c2cccc(C(=O)O)c2)cc1Cl)[C@@](O)(c1ccc2c(c1)n(C)c(=O)n2C)C(F)(F)F (stereo in doubt) [Example 78, 3′-Chloro-4′-[2-(1,3-dimethyl-2-oxo-2,3-dihydro-1H-benzoimidazol-5-yl)-3,3,3-trifluoro-2-hydroxy-1-methyl-propyl]-biphenyl-3-carboxylic acid]"
17,66.1 nM,"COC(=O)c1ccc(-c2ccc([C@@H](C)[C@@](O)(c3cccc4c3OCC(=O)N4C)C(F)(F)F)c(Cl)c2)cc1F (relative stereo) [Example 53, 3′-Chloro-3-fluoro-4′-[3,3,3-trifluoro-2-hydroxy-1-methyl-2-(4-methyl-3-oxo-3,4-dihydro-2H-benzo[1,4]oxazin-8-yl)-propyl]-biphenyl-4-carboxylic acid methyl ester]"
18,1.8 nM,"COC(=O)c1cnc(Oc2ccc([C@@H](C)[C@@](O)(c3ccc4oc(=O)n(C)c4c3)C(F)(F)F)c(Cl)c2)c(Cl)c1 (relative stereo) [Example 175, 5-Chloro-6-{3-chloro-4-[3,3,3-trifluoro-2-hydroxy-1-methyl-2-(3-methyl-2-oxo-2,3-dihydro-benzooxazol-5-yl)-propyl]-phenoxy}-nicotinic acid methyl ester]"
19,7.5 nM,"C[C@H](c1ccc(-c2ccc(C(=O)O)c(F)c2)cc1Cl)[C@@](O)(c1ccc2c(c1)OCC(=O)N2C)C(F)(F)F (stereo in doubt) [Example 164, 3′-Chloro-3-fluoro-4′-[3,3,3-trifluoro-2-hydroxy-1-methyl-2-(4-methyl-3-oxo-3,4-dihydro-2H-benzo[1,4]oxazin-7-yl)-propyl]-biphenyl-4-carboxylic acid]"
20,3.7 nM,"C[C@@H](c1cc(Oc2ccc(C(=O)O)c(Cl)c2)ccc1Cl)[C@](O)(c1ccc2c(c1)N(C)C(=O)CO2)C(F)(F)F (relative stereo) [Example 10, 2-Chloro-4-{4-chloro-3-[3,3,3-trifluoro-2-hydroxy-1-methyl-2-(4-methyl-3-oxo-3,4-dihydro-2H-benzo[1,4]oxazin-6-yl)-propyl]-phenoxy}-benzoic acid]"
21,0.3 nM,"CC(c1ccc(Oc2ccc(F)c(C(=O)O)c2)cc1Cl)C(O)(c1ccc2c(c1)n(C)c(=O)n2C)C(F)(F)F (stereo not drawn) [Example 91, 5-{3-Chloro-4-[2-(1,3-dimethyl-2-oxo-2,3-dihydro-1H-benzoimidazol-5-yl)-3,3,3-trifluoro-2-hydroxy-1-methyl-propyl]phenoxy}-2-fluoro-benzoic acid]"
